How the values were obtained:
[1] = design: method as in PMID 24313264; details: oral administration; cited from earlier work
[2] = mouse, microsomes
[3] = tested on: prostate cancer PC3; design: method as in PMID 16595968, PMID 24554216; details: cited from earlier work
[4] = tested on: ovarian carcinoma A-2780; design: method as in PMID 16595968, PMID 24554216; details: cited from earlier work
[5] = Metabolic stability in mouse liver microsomes; details: for in vitro t1/2 in mouse liver microsomes: MLM 0.5 mg/mL, NADPH, 37 °C, substrate 1.0 μM (midazolam 0.5 μM)
[6] = tested on: DU145 cells; design: method as in PMID 16595968, PMID 24554216; details: cited from earlier work
[7] = design: method as in PMID 27521984; details: intravenous administration; cited from earlier work
[8] = tested on: HepG2 cells; design: method as in PMID 26678180; details: cited from earlier work
[9] = design: method as in PMID 27859436; details: mouse, after intravenous dosing of LC-B; cited from earlier work
[10] = design: method as in PMID 26678180; details: cited from earlier work
[11] = tested on: esophageal squamous carcinoma cells; design: method as in PMID 28463955; details: cotreatment of LC-C and oxaliplatin; cited from earlier work
[12] = Metabolic stability in rat liver microsomes; details: pH 7.4
[13] = Metabolic stability in human liver microsomes; details: pH 7.4

Structure (SMILES) | bioavailability [1] | exposure in tissues [1] | degradation in MLM regardless of the presence of NADPH [2] | degradation in MLM with esterase inhibitor dichlorvos [2] | cytotoxicity against PC3 [3] | cytotoxicity against A-2780 [4] | in vitro t1/2 in mouse liver microsomes [5] [min] | cytotoxicity against DU145 [6] | recovery in rat excreta [7] | cytotoxicity against HepG2 cells [8] | main site of tissue distribution [9] | fraction metabolized in intestinal microflora [10] [%] | chemosensitizing effect of cotreatment with oxaliplatin [11] | half-life at 0.5 μM [12] [min] | half-life at 0.5 μM [13] [min] | half-life at 0.5 μM ([5]; mouse, microsomes, pH 7.4) [min]
CCCCCC(=O)O[C@H]1CC(C)(C)C[C@@H]2[C@@]13[C@H](O)C[C@]1(C)[C@@]2(CC[C@@H]2[C@@]4(C)CC[C@H](O[C@@H]5OC[C@H](O[C@@H]6O[C@H](CO)[C@@H](O)[C@H](O)[C@H]6O[C@@H]6OC[C@@H](O)[C@H](O)[C@H]6O)[C@H](O)[C@H]5O[C@@H]5O[C@H](CO)[C@@H](O)[C@H](O)[C@H]5O)C(C)(C)[C@@H]4CC[C@]21C)O[C@H]3O [LC-B, Capilliposide B] | poor bioavailability | low exposure in tissues | obvious degradation | remarkably inhibited | significant cytotoxicities | significant cytotoxicities | 27.7 | significant cytotoxicities | less than 10% |  |  |  |  |  |  | 
CC1(C)C[C@@H]2[C@@]3([C@H](O)C[C@]4(C)[C@@]2(CC[C@@H]2[C@@]5(C)CC[C@H](O[C@@H]6OC[C@H](O[C@@H]7O[C@H](CO)[C@@H](O)[C@H](O)[C@H]7O[C@@H]7OC[C@@H](O)[C@H](O)[C@H]7O)[C@H](O)[C@H]6O[C@@H]6O[C@H](CO)[C@@H](O)[C@H](O)[C@H]6O)C(C)(C)[C@@H]5CC[C@]24C)O[C@@H]3O)[C@@H](O)C1 [LC-A, Capilliposide A] |  |  |  |  |  |  |  |  |  | significant cytotoxicity | mainly distributed in mouse liver |  |  |  |  | 
CC1(C)C[C@H](O[C@@H]2O[C@H](CO)[C@@H](O)[C@H](O)[C@H]2O)[C@@]23[C@H](O)C[C@]4(C)[C@@](CC[C@@H]5[C@@]6(C)CC[C@H](O[C@@H]7OC[C@H](O[C@@H]8O[C@H](CO)[C@@H](O)[C@H](O)[C@H]8O[C@@H]8OC[C@@H](O)[C@H](O)[C@H]8O)[C@H](O)[C@H]7O[C@@H]7O[C@H](CO)[C@@H](O)[C@H](O)[C@H]7O)C(C)(C)[C@@H]6CC[C@]54C)(O[C@@H]2O)[C@@H]3C1 [LC-C, Capilliposide C] | poor bioavailability | low exposure in tissues | obvious degradation | remarkably inhibited | significant cytotoxicities | significant cytotoxicities | 63.0 | significant cytotoxicities |  |  |  | 92.7 | chemosenstizing effect |  |  | 
Cc1ncc2n1-c1ccc(Cl)cc1C(c1ccccc1F)=NC2 [midazolam, Midazolam] |  |  |  |  |  |  |  |  |  |  |  |  |  | 2.35 | 3.73 | 3.85
